pIC50: −log10 of the molar value.
Target: T1, Recombinant Human ENPP-2/Autotaxin (Homo sapiens, UniProt Q13822)
T1 construct: purchased R&D systems 5255-EN
Assay: LysoPLD activity measurement (autotaxin enzyme inhibition, choline release, TOOS reagent)
Format: biochemical
Conditions: LysoPLD inhibitory activity; substrate 14:0 LysoPC; absorbance at 555 nm
Summary of the method: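 Enzyme and compound were preincubated for 30 min before adding 14:0 LysoPC substrate, diluted to 300 μM, for 90 minutes at 37° C. The choline product was quantified colorimetrically with TOOS reagent. Wells without compound held 1% DMSO.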

pIC50, 7.00 to 8.00:
CC1(C)OCc2cc(-n3c(=O)n(C4(c5cccc(C(=O)O)c5F)CC4)c4ccc(Cl)cc43)ccc21 [Example 253, 3-(1-(5-chloro-3-(1,1-dimethyl-1,3-dihydroisobenzofuran-5-yl)-2-oxo-2,3-dihydro-1H-benzo[d]imidazol-1-yl)cyclopropyl)-2-fluorobenzoic acid]
O=C(O)c1cccc(C2(n3c(=O)n(-c4ccc(C5CCOCC5)nc4)c4cc(Cl)ccc43)CC2)c1 [Example 261, 3-(1-(5-chloro-2-oxo-3-(6-(tetrahydro-2H-pyran-4-yl)pyridin-3-yl)-2,3-dihydro-1H-benzo[d]imidazol-1-yl)cyclopropyl)benzoic acid]

pIC50, > 8.00:
CC1(C)OCc2cc(-n3c(=O)n(C4(c5cccc(C(=O)O)c5)CC4)c4ccc(Cl)cc43)ccc21 [Example 251, 3-(1-(5-chloro-3-(1,1-dimethyl-1,3-dihydroisobenzofuran-5-yl)-2-oxo-2,3-dihydro-1H-benzo[d]imidazol-1-yl)cyclopropyl)benzoic acid]
CC1(C)OCc2cc(-n3c(=O)n(C4(c5cc(F)cc(C(=O)O)c5)CC4)c4ccc(Cl)cc43)ccc21 [Example 252, 3-(1-(5-chloro-3-(1,1-dimethyl-1,3-dihydroisobenzofuran-5-yl)-2-oxo-2,3-dihydro-1H-benzo[d]imidazol-1-yl)cyclopropyl)-5-fluorobenzoic acid]
O=C1COc2cc(-n3c(=O)n(C4(c5cc(F)cc(C(=O)O)c5)CC4)c4ccc(Cl)cc43)ccc2N1 [Example 254, 3-(1-(5-chloro-2-oxo-3-(3-oxo-3,4-dihydro-2H-benzo[b][1,4]oxazin-7-yl)-2,3-dihydro-1H-benzo[d]imidazol-1-yl)cyclopropyl)-5-fluorobenzoic acid]
CN1CCOc2cc(-n3c(=O)n(C4(c5cc(F)cc(C(=O)O)c5)CC4)c4ccc(Cl)cc43)ccc21 [Example 255, 3-(1-(5-chloro-3-(4-methyl-3,4-dihydro-2H-benzo[b][1,4]oxazin-7-yl)-2-oxo-2,3-dihydro-1H-benzo[d]imidazol-1-yl)cyclopropyl)-5-fluorobenzoic acid]
O=C(O)c1cccc(C2(n3c(=O)n(-c4ccc(C5(O)CCC5)cc4)c4cc(Cl)ccc43)CC2)c1 [Example 256, 3-(1-(5-chloro-3-(4-(1-hydroxycyclobutyl)phenyl)-2-oxo-2,3-dihydro-1H-benzo[d]imidazol-1-yl)cyclopropyl)benzoic acid]
O=C(O)c1cc(F)cc(C2(n3c(=O)n(-c4ccc(C5(O)CCC5)cc4)c4cc(Cl)ccc43)CC2)c1 [Example 257, 3-(1-(5-chloro-3-(4-(1-hydroxycyclobutyl)phenyl)-2-oxo-2,3-dihydro-1H-benzo[d]imidazol-1-yl)cyclopropyl)-5-fluorobenzoic acid]
O=C(O)c1cccc(C2(n3c(=O)n(-c4ccc(C5(O)COC5)cc4)c4cc(Cl)ccc43)CC2)c1 [Example 258, 3-(1-(5-chloro-3-(4-(3-hydroxyoxetan-3-yl)phenyl)-2-oxo-2,3-dihydro-1H-benzo[d]imidazol-1-yl)cyclopropyl)benzoic acid]
O=C(O)c1cccc(C2(n3c(=O)n(-c4ccc(C5CCN(C6COC6)CC5)cc4)c4cc(Cl)ccc43)CC2)c1 [Example 260, 3-(1-(5-chloro-3-(4-(1-(oxetan-3-yl)piperidin-4-yl)phenyl)-2-oxo-2,3-dihydro-1H-benzo[d]imidazol-1-yl)cyclopropyl)benzoic acid]

pIC50, 6.00 to 7.00:
O=C(O)c1cccc(Cn2c(=O)n(-c3ccc(C4CCN(C5COC5)CC4)cc3)c3cc(Cl)ccc32)c1 [Example 259, 3-((5-chloro-3-(4-(1-(oxetan-3-yl)piperidin-4-yl)phenyl)-2-oxo-2,3-dihydro-1H-benzo[d]imidazol-1-yl)methyl)benzoic acid]
